From patent publication US9815863B2, “Hydrogen bond forming fluoro ketolides for treating diseases” (priority 2010, dated 2017)

How the values were obtained:
E. coli ribosome = experiment: Competition binding with [14C]erythromycin, E. coli ribosome
Protocol: (§1) Competition binding studies. Binding of erythromycin to E. coli and S. aureus ribosomes and competition experiments were done by size-exclusion chromatography using Bio-Gel P30 spin columns as described in Xiong, L., Y. Korkhin, and A. S. Mankin. 2005. Binding site of the bridged macrolides in the Escherichia coli ribosome. Antimicrob. Agents Chemother. 49:281-288.
(§2) For competition binding experiments, ribosomes (100 nM) were preincubated with 100 nM [^14C]erythromycin (48.8 mCi/mmol; PerkinElmer) in 160 μL of buffer A at 37° C. for 15 min, then at 20° C. for 10 min. Competing antibiotics were added at varying concentrations, and the binding mixture was incubated at 20° C. for 100 min. The reactions were loaded onto the spin columns and the amount of ribosome-associated radioactivity was measured as described above. Binding data were analyzed using Prism software (GraphPad). Cell free transcription-translation assays.

S. aureus ribosome = experiment: Competition binding with [14C]erythromycin, S. aureus ribosome
Protocol: as §1, §2

[1] = system: E. coli ribosomes (23S rRNA); experiment: RNA footprinting (ribosome chemical probing), wild-type E. coli ribosomes; type: binding; details: 100 μM antibiotic
Protocol: (§3) Ribosome chemical probing. rRNA probing was done following standard protocols (Merryman, C., and H. F. Noller. 1998. Footprinting and modification-interference analysis of binding sites on RNA, p. 237-253. In C. W. J. Smith (ed.), RNA:Protein Interactions, A Practical Approach. Oxford University Press, Oxford), with minor modifications. Briefly, 200 nM ribosomes were incubated with 100 μM antibiotic in 50 μL of buffer B (80 mM HEPES-KOH [pH 7.8], 20 mM MgCl2, 100 mM NH4Cl, 1.5 mM dithiothreitol) for 10 min at 37° C., followed by 10 min at 20° C. Modifying reagents (dimethyl sulfate [DMS], kethoxal, or 1-cyclohexyl-3-(2-morpholinoethyl)carbodiimide metho p-toluene sulfonate [CMCT]) were added and the modification reaction was carried out for 10 min at 37° C. After quenching the reaction and ethanol precipitation, rRNA was extracted and the distribution of modified nucleotides was assessed by primer extension.
Interactions of CEM-101 with wild-type E. coli and S. aureus ribosomes in solution. […] 1987. Chloramphenicol, erythromycin, carbomycin and vernamycin B protect overlapping sites in the peptidyl transferase region of 23S ribosomal RNA. Biochimie 69:879-884). Also included in this study was a C3-cladinose cousin of CEM-101, CEM-103, which lacks the C2-linked fluorine atom.

[2] = system: 2058-dimethylated ribosomes isolated from the S. aureus N315 strain; experiment: RNA footprinting of A2058-dimethylated (Erm-modified) ribosomes from S. aureus N315; type: binding; details: S. aureus N315 ribosomes dimethylated at A2058, drugs at 100 μM
Protocol: as §3
Interaction of CEM-101 with S. aureus ribosomes dimethylated at A2058 by Erm-methyltransferase. Erm-methyltransferase modifies A2058 in 23S rRNA by consecutively adding two methyl groups to the exocyclic amino group of the adenine base. Such modification completely blocks binding of erythromycin and similar macrolides, whereas its effect on binding of ketolides is less clear (Douthwaite, S., L. H. Hansen, and P. Mauvais. 2000. Macrolide-ketolide inhibition of MLS-resistant ribosomes is improved by alternative drug interaction with domain R of 23S rRNA. Mol. Microbiol. 36:183-193; Liu, M., and S. Douthwaite. 2002. Activity of the ketolide telithromycin is refractory to Erm monomethylation of bacterial rRNA. Antimicrob. Agents Chemother. 46:1629-1633). Therefore, interaction of CEM-101 with the ribosomes isolated from a clinical S. aureus strain N315, which carries five chromosomal copies of constitutively expressed ermA gene present in the Tn554 transposon (Kuroda, M., T. Ohta, I. Uchiyama, T. Baba, H. Yuzawa, I. Kobayashi, L. Cui, A. Oguchi, K. Aoki, Y. Nagai, J. Lian, T. Ito, M. Kanamori, H. Matsumaru, A. Maruyama, H. Murakami, A. Hosoyama, Y. Mizutani-Ui, N. K. Takahashi, T. Sawano, R. Inoue, C. Kaito, K. Sekimizu, H. Hirakawa, S. Kuhara, S. Goto, J. Yabuzaki, M. Kanehisa, A. Yamashita, K. Oshima, K. Furuya, C. Yoshino, T. Shiba, M. Hattori, N. Ogasawara, H. Hayashi, and K. Hiramatsu. 2001. Whole genome sequencing of meticillin-resistant Staphylococcus aureacs. Lancet 357:1225-1240) was investigated.
Footprinting analysis was used to test interactions of ketolides (CEM-101 and telithromycin) and cladinose-containing macrolides (CEM-103 and erythromycin) with the 2058-dimethylated ribosomes isolated from the S. aureus N315 strain. Ribosomes were incubated with the drugs (present at 100 μM concentration) and probed by DMS modification. Because dimethylated A2058 blocks progression of reverse transcriptase along the RNA template, a strong reverse transcriptase stop is observed at A2058 on the primer extension gel (Vester, B., and S. Douthwaite. 1994. Domain V of 23S rRNA contains all the structural elements necessary for recognition by the ErmE methyltransferase. J. Bacteriol. 176:6999-7004; Zhong, P., Z. Cao, R. Hammond, Y. Chen, J. Beyer, V. D. Shortridge, L. Y. Phan, S. Pratt, J. Capobianco, K. A. Reich, R. K. Flamm, Y. S. Or, and L. Katz. 1999. Induction of ribosome methylation in MLS-resistant Streptococcus pneumoniae by macrolides and ketolides. Microb. Drug Resist. 5:183-188). Therefore, it is impossible to use footprinting to evaluate interactions of macrolides with this position in the S. aureus N315 ribosomes. […]

[3] = system: bacterial protein synthesis (E. coli S30 extract); experiment: E. coli cell-free transcription-translation (TnT) S30 system, firefly luciferase synthesis; details: read-out: IC50 of inhibition of firefly luciferase synthesis, ribosomes 600 nM

CC[C@H]1OC(=O)[C@@](C)(F)C(=O)[C@H](C)[C@@H](O[C@@H]2O[C@H](C)C[C@H](N(C)C)[C@H]2O)[C@](C)(OC)C[C@@H](C)C(=O)[C@H](C)[C@H]2N(CCCCn3cc(-c4cccc(N)c4)nn3)C(=O)O[C@]12C [CEM-101] showed a Kd (E. coli ribosome; E. coli ribosome, resulting from competition IC50) of 62 ± 3 nM, an IC50 (E. coli ribosome; competition with 100 nM [14C]erythromycin, 100 nM E. coli ribosomes, read-out: IC50 of displacement of erythromycin) of 155 ± 8 nM and a Kd (S. aureus ribosome; S. aureus ribosome, resulting from competition IC50) of 12 ± 1 nM. For the same compound, the IC50 (S. aureus ribosome; competition with 100 nM [14C]erythromycin, 100 nM S. aureus ribosomes, read-out: IC50 of displacement of erythromycin) was 117 ± 3 nM, the “Protection of A752 from DMS modification” value ([1]; E. coli ribosomes) was “strongly protects” and the “Protection of A2058 and A2059 in domain V of 23S rRNA from modification with DMS” value ([1]; E. coli wild-type ribosomes) was “protect”. For the same compound, the “Protection of A2059 from DMS modification (binding to Erm-modified ribosome)” value [2] was “protection of A2059 from DMS modification”, the “Protection of G2505 from kethoxal modification” value [2] was “partially protected” and the “Protection of U2609 from modification with CMCT” value [2] was “fully protected”. The IC50 [3] was 1100 nM.
